Data set [1] has as its system Mycobacterium tuberculosis H37Rv. In words: Mtb dose response. The format is cell-based. The following applies: for IC90: Table 2, Mtb H37Rv dose response.
The next data set relates to Vero cells. In words: Cell cytotoxicity assay using Vero cells, CellTiter-Glo luminescence. (In general: ATP-based viability assays read luminescence as a measure of living cells.)
Data set [2] has as its system tufted apple budmoth larvae (P. idaeusalis). The conditions noted are these: cited from earlier work.

Converted amounts (≈) assume the structure as drawn.

In general, IC90 refers to the concentration needed for an effect of 90%. Low readings indicate greater potency, high ones weaker potency. In general, IC50 refers to the concentration that inhibits the measured activity by half. A lower IC50 goes with higher potency. As a reminder, the inhibition is the drop in the measured response relative to a control, in per cent.

For the molecule `Cc1cc(C)cc(Nc2cc(C)nc3c(-c4ccccc4)cnn23)c1` [Compound 4c], the concentration for an effect of 90% (IC90) in data set [1] is 2.7 µg/mL (≈ 8.22 µM).

The molecule `Cc1cc(Nc2ccc(C)c(Cl)c2)n2ncc(-c3ccccc3)c2n1` [Compound 4d] registered an IC90 in data set [1] of 3.4 µg/mL (≈ 9.75 µM). Regarding `COc1cccc(Nc2cc(C)nc3c(-c4ccccc4)cnn23)c1` [Compound 4b], in data set [1], the IC90 worked out at 1.8 µg/mL (≈ 5.45 µM). Same read-out and setting: next, `COc1ccccc1-c1cnn2c(Nc3cccc(Cl)c3)cc(C)nc12` [Compound 4a]: 1.7 µg/mL (≈ 4.66 µM). Regarding `CCOc1ccc(C(=O)Nc2nnc(-c3ccccn3)o2)cc1` [Compound 22a], the “activity and toxicity in words” value in data set [1] (Mtb IC90 and Vero selectivity) is “potent and relatively non-toxic”. With `O=C(OCn1nnc2ccccc2c1=O)c1ccccc1` [Compound 7a], in the data set with Vero cells, the cytotoxicity is above 40 µg/mL. Consider `COP(=S)(OC)SCn1nnc2ccccc2c1=O` [azinphosmethyl], for which the susceptibility of larvae entry in data set [2] is listed as “susceptible”. As to `Cc1cc(Nc2ccc(C)c(C)c2)n2ncc(-c3ccccc3)c2n1` [Compound 4e], in data set [1], the concentration for an effect of 90% (IC90) came out at 3.4 µg/mL (≈ 10.4 µM). As for `NCC[C@H](O)C(=O)N[C@@H]1C[C@H](N)[C@@H](O[C@H]2O[C@H](CN)[C@@H](O)[C@H](O)[C@H]2O)[C@H](O)[C@H]1O[C@H]1O[C@H](CO)[C@@H](O)[C@H](N)[C@H]1O` [amikacin, reference compound], in data set [1] (Mycobacterium tuberculosis, H37RV), the 50% inhibitory concentration (IC50) stood at 0.13 µg/mL (≈ 0.222 µM). Also, the inhibition at 0.13 µg/mL in data set [1] (Mycobacterium tuberculosis, H37RV, read-out: inhibition of Mtb growth) was in the range of 33 to 60%.

(Values after article PMC3183257 (Tuberculosis (Edinburgh, Scotland), 2011).)
